Data: article PMC11921344, “Antimicrobial peptide DiPGLa-H exhibits the most outstanding anti-infective activity among the PGLa variants based on a systematic comparison” (Applied and Environmental Microbiology, 2025)
Like-named read-outs stand apart in the source and are kept apart here. Where no end group is shown, it is not given here.

Key:
Gram-negative bacteria = assay: Geometric mean MIC and therapeutic index, Gram-negative; format: cell-based; settings: geometric mean of the peptide MICs against Gram-negative strains
Method: (§1) The antibacterial activity was evaluated using a standard MIC and MBC assay according to the National Committee for Clinical Laboratory Standards (NCCLS). MIC, MBC assay, and time-kill curves for the optimal peptide are provided in the Supplementary Materials.
(§2) Antimicrobial Activity Assays. The antibacterial activity of the peptides was determined using a method designed from the National Committee for Clinical Laboratory Standards (NCCLS) in the United States. All the strains used in the experiment are preserved in the laboratory. Briefly, log phase bacterial cells were diluted in MHB to a final concentration of 0.5-1x10^5 CFU/mL. Subsequently, 50μL of different concentrations of polypeptides were incubated with 50 μL of bacterial solution in sterile 96-well plates. In the minimum inhibitory concentration (MIC) assay, the plate was incubated at 37°C for 24 h, and the minimum inhibitory concentration (MIC) was determined by the absorbance at 492 nm of the microplate reader, and the minimum inhibitory concentration (MIC) inhibited 95% of bacteria grow. Determination of minimum bactericidal concentration: the plate was incubated at 37°C for 4 hours, 50 μL of the mixture was taken out of each well, diluted with an appropriate amount of PBS, smeared on the agar plate, and cultured overnight. Colonies were counted and the initial CFU/well was retrospectively calculated the following day. The lowest concentration of peptide that kills 99.9% of bacterial cells is the minimum bactericidal concentration (µM), Each test was replicated at least 3 times.

P. aeruginosa ATCC27853 = format: cell-based, Pseudomonas aeruginosa; settings: for MBC P. aeruginosa ATCC27853: ATCC27853, 4 h; for MIC P. aeruginosa ATCC27853: ATCC27853, 24 h
Method: as §1, §2

Gram-positive bacteria = assay: Geometric mean MIC and therapeutic index, Gram-positive; format: cell-based; settings: geometric mean of the peptide MICs against Gram-positive strains
Method: as §1, §2

E. coli K88 = format: cell-based, Escherichia coli
Method: as §1
as §2, with “The lowest concentration of peptide that kills 99.9% of bacterial cells is the minimum bactericidal concentration (µM), Each test was replicated at least 3 times.” left out

all tested bacteria = assay: Geometric mean MIC and therapeutic index, all strains; format: cell-based; settings: for GMMIC All: geometric mean of the peptide MICs against all strains; for reduced antibacterial efficacy compared with DiPGLa-H: from MICs of Table 2
Method: as §1, §2

S. aureus ATCC 25923 = settings: cited from earlier work
Method: (§3) PGLa, an amphibian 21-residue cationic AMP, with a net charge of +4, was found in the skin of the toad Xenopus laevis ([6]). The minimum inhibitory concentration (MIC) of PGLa against Escherichia coli 25922 and S. aureus 25923 were 10–50 μg/mL and 50–100 μg/mL, respectively ([6]). […] The rep ...

E. coli ATCC 25922 = settings: cited from earlier work
Method: as §3

A. baumannii ATCC19606 = format: cell-based, Acinetobacter baumannii; settings: for MBC A. baumannii ATCC19606: ATCC19606, 4 h; for MIC A. baumannii ATCC19606: ATCC19606, 24 h
Method: as §1, §2

S. aureus ATCC29213 = format: cell-based, Staphylococcus aureus; settings: for MBC S. aureus ATCC29213: ATCC29213, 4 h; for MIC S. aureus ATCC29213: ATCC29213, 24 h
Method: as §1, §2

E. coli ATCC25922 = format: cell-based, Escherichia coli; settings: for MBC E. coli ATCC25922: ATCC25922, 4 h; for MIC E. coli ATCC25922: ATCC25922, 24 h
Method: as §1
as §2, with “[…],” for “the plate was incubated at 37°C for 24 h,”

S. aureus Mu50 = format: cell-based, Staphylococcus aureus MRSA; settings: for MBC S. aureus Mu50: Mu50, 4 h; for MIC S. aureus Mu50: Mu50, 24 h
Method: as §1, §2

[1] = test system: Acinetobacter nosocomial Ab113; settings: cited from earlier work
Description: (§4) To date, there is a lack of systematic comparative study on the bacteriostatic activity and biosafety of PGLa and its variants, which precludes the determination of the variant with the highest potential for application. It has been more than 30 years since the discovery of PGLa in 1983 to the recent discovery of new PGLa-derived peptides.

Helicobacter pylori = settings: cited from earlier work
Description: as §4

E. coli = settings: cited from earlier work
Method: as §3

S. aureus = settings: cited from earlier work
Method: as §3

Pseudomonas aeruginosa = settings: cited from earlier work
Description: as §4

MRSA = settings: cited from earlier work
Description: as §4

[2] = test system: E. coli K88 outer membrane; assay: Outer membrane integrity assay (NPN uptake); format: cell-based, Escherichia coli; settings: 4 µM peptide; relative to 10 µg/mL polymyxin B = 100%
Method: (§5) The outer and inner membrane integrity of bacterial cells treated with peptides was assessed using NPN and PI staining, respectively. Full details are provided in the Supplementary Materials.
Membrane permeabilization. Outer membrane integrity assay. The fluorescent probe NPN (Sigma-Aldrich, catalog no. 104043, ≥98%) was used to assess the outer membrane integrity of DiPGLa-H or mucin-treated E. coli K88. Briefly, log-medium E. coli K88 cells (OD600 = 0.2) were incubated with NPN (10 μM) in 5 mM HEPES buffer (pH 7.4, containing 5 mM glucose) for 30 min, and background fluorescence was recorded for subtraction. (excitation λ = 350 nm, emission λ = 420 nm) using a microplate reader (Varioskan Flash; Thermo, America). Subsequently, 100 μL of cell suspension was mixed with an equal volume of peptide solutions ranging in concentration from 4 to 64 μM in a sterile 96-well black plate. Fluorescence was recorded over time until no further increase in fluorescence was detected. Each test was performed independently, in duplicate, with three biological replicates, and results were converted to percent NPN uptake using the equation. NPN uptake (%) = (Fobs – Fbuffer)/ (Fpositive – Fbuffer) ×100%.
where Fobs is the observed fluorescence at a given peptide concentration, Fbuffer is the fluorescence of the buffer, and Fpositive is the fluorescence of NPN with microbial cells upon addition of 10 μg/mL polymyxin B (Sigma), which was used as a positive control because of its strong outer membrane-permeabilizing property. Untreated cell suspension served as the negative control.

[3] = test system: E. coli K88 inner membrane; assay: Inner membrane integrity assay (PI); format: cell-based, Escherichia coli; settings: 4 µM, 16 µM and 64 µM peptide
Method: as §5
Inner membrane integrity assay. E. coli K88 cells were washed and resuspended in 0.01 mol l−1 of PBS (pH 7.4) to obtain an OD600 of 0.5, followed by the addition of 10 nmol l−1 of PI (Thermo Fisher Scientific, catalogue no. P1304MP) in the presence of […]. After incubation for 30 min, fluorescence was measured with the excitation wavelength at 535 nm and emission wavelength at 615 nm.

[4] = first of two independent studies
[5] = second of two independent studies

| Substance | GMMIC Gram-negative (Gram-negative bacteria) | MBC P. aeruginosa ATCC27853 (P. aeruginosa ATCC27853) | MIC P. aeruginosa ATCC27853 (P. aeruginosa ATCC27853) | GMMIC Gram-positive (Gram-positive bacteria) | GMMIC All (all tested bacteria) | MBC A. baumannii ATCC19606 (A. baumannii ATCC19606) | MIC A. baumannii ATCC19606 (A. baumannii ATCC19606) | MBC S. aureus ATCC29213 (S. aureus ATCC29213) | MIC S. aureus ATCC29213 (S. aureus ATCC29213) | MBC E. coli ATCC25922 (E. coli ATCC25922) | MIC E. coli ATCC25922 (E. coli ATCC25922) | MBC S. aureus Mu50 (S. aureus Mu50) | MIC S. aureus Mu50 (S. aureus Mu50) | reduced antibacterial efficacy compared with DiPGLa-H (all tested bacteria) | also measured |
| --- | --- | --- | --- | --- | --- | --- | --- | --- | --- | --- | --- | --- | --- | --- | --- |
| GMASKAGAIAGKIAKVALKAL-NH2 (C-terminus assumed) [PGLa] | 38.05 µM | 64 µM | 64 µM | 64 µM | 45.25 µM | 16 µM | 16 µM | 64 µM | 64 µM | > 64 µM | > 64 µM | >64 (>64) µM | >64 (>64) µM | – | MIC E. coli K88 (E. coli K88; lowest concentration inhibiting 95% of growth, MHB, 0.5-1x10^5 CFU/mL, 37°C 24 h, absorbance 492 nm, three independent experiments): 32 µM; MBC E. coli K88 (E. coli K88; lowest concentration killing >99.9% of cells, 37°C 4 h, plating, colony count, three independent trials): 64 µM; MIC S. aureus 25923 (S. aureus ATCC 25923): 50 to 100 µg/mL; MIC E. coli 25922 (E. coli ATCC 25922): 10 to 50 µg/mL |
| KIAKGALKALKIAKVALKAL-NH2 (C-terminus assumed) [kiadin-2] | 4.76 µM | 8 µM | 4 µM | 32 µM | 8.98 µM | 4 µM | 4 µM | 32 µM | 32 µM | 16 µM | 8 µM | 32 (32) µM | 32 (32) µM | 2–8 times | – |
| GMASKAGSVLGKVAKVALKAAL-NH2 (C-terminus assumed) [PGLa-AM1] | 53.82 µM | > 64 µM | 64 µM | 64 µM | 57.02 µM | 32 µM | 32 µM | > 64 µM | > 64 µM | > 64 µM | > 64 µM | >64 (>64) µM | >64 (>64) µM | – | MIC Acinetobacter nosocomial Ab113 [1]: 128 µg/mL; MIC Helicobacter pylori (Helicobacter pylori): 1 µg/mL; MIC E. coli (E. coli): 12.5 µM; MIC S. aureus (S. aureus): 25 µM |
| KIAKVALKALKIAKGALKAL-NH2 (C-terminus assumed) [kiadin-1] | 11.31 µM | 16 µM | 8 µM | 22.63 µM | 14.25 µM | 4 µM | 4 µM | 16 µM | 16 µM | 64 µM | 32 µM | 32 (32) µM | 32 (32) µM | 2–8 times | MIC Pseudomonas aeruginosa ATCC 25922 (Pseudomonas aeruginosa; [4]): 6 µM; MIC Pseudomonas aeruginosa ATCC 25922 (Pseudomonas aeruginosa; [5]): > 32 µg/mL; MIC MRSA (MRSA; [4]): 3 µM; MIC MRSA (MRSA; [5]): 16 µg/mL |
| KIAKVALKAL-NH2 (C-terminus assumed) [PGLa-H] | 128 µM | > 128 µM | > 128 µM | 128 µM | 128 µM | > 128 µM | > 128 µM | > 128 µM | > 128 µM | > 128 µM | > 128 µM | >128 (>128) µM | >128 (>128) µM | – | outer membrane permeability (NPN uptake) [2]: failed to exhibit any discernible outer membrane permeability; PI-DNA fluorescence intensity [3]: relatively constant PI-DNA fluorescence intensity; MIC S. aureus ATCC 25923 (S. aureus ATCC 25923): 8.7 µg/mL; MIC E. coli ATCC25922 (E. coli ATCC 25922): 23.6 µg/mL |
